Measurements from ChEMBL document CHEMBL5291721, “A preclinical secondary pharmacology resource illuminates target-adverse drug reaction associations of marketed drugs” (Nat Commun, 2023).

What was measured:
[1] = biological target: T1, Alpha-1A adrenergic receptor (Homo sapiens, UniProt P35348); type: functional, cell-based
T1 sequence (P35348 whole entry): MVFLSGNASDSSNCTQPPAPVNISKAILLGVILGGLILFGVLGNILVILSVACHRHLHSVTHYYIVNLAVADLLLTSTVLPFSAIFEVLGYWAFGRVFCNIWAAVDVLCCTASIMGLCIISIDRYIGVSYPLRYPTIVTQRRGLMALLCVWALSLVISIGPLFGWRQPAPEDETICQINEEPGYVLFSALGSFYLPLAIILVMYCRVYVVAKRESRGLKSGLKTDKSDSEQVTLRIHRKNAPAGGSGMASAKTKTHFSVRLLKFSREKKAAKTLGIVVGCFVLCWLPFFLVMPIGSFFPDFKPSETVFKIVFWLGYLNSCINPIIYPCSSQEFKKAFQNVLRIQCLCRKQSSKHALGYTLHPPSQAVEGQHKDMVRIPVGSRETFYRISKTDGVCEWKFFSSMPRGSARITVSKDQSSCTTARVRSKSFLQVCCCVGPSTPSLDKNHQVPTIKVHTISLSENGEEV

Progesterone receptor [2] = biological target: T2, Progesterone receptor (Homo sapiens, UniProt P06401); type: functional
T2 sequence (P06401 whole entry): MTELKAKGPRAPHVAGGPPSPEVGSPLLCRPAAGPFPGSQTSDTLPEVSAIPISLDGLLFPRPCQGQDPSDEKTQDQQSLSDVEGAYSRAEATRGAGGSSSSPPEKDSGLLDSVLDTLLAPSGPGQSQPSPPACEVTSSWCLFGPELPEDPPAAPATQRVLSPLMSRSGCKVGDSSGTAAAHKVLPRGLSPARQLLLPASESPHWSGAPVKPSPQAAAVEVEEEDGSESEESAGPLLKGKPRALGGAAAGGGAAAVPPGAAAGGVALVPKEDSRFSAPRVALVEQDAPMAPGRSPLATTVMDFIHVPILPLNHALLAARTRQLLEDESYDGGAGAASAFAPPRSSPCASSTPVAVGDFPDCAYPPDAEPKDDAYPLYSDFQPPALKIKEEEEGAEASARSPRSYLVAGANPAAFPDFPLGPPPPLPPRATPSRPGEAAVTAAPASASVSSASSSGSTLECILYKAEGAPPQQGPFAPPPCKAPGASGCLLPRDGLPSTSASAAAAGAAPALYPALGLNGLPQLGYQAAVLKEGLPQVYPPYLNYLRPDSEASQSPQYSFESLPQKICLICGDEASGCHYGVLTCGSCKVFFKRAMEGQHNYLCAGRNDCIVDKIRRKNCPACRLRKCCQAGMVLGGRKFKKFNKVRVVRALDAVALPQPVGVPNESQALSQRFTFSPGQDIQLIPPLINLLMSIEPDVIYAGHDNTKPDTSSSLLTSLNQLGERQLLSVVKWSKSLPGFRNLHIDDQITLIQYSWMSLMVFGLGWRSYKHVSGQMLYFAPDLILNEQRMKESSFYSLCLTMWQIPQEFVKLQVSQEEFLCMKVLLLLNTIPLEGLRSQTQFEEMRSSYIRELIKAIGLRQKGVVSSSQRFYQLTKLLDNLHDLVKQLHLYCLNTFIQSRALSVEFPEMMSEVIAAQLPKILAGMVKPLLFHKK

[3] = biological target: T3, Muscarinic acetylcholine receptor M2 (Homo sapiens, UniProt P08172); type: functional, cell-based
T3 sequence (P08172 whole entry): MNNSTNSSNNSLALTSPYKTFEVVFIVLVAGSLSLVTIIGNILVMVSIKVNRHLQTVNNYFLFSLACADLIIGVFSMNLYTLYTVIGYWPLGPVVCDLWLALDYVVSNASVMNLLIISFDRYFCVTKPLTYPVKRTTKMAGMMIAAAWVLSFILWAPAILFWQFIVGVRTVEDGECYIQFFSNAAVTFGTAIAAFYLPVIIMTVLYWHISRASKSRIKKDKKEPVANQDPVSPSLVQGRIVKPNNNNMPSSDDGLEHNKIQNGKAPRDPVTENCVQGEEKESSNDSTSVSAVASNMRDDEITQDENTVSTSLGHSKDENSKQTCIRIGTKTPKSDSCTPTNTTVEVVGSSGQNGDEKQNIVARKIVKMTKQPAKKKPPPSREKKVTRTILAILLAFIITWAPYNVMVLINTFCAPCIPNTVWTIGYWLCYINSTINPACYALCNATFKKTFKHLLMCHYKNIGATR

[4] = biological target: Prostaglandin G/H synthase 1 (Homo sapiens, UniProt P23219); type: functional
Chain of Prostaglandin G/H synthase 1 (P23219 whole entry): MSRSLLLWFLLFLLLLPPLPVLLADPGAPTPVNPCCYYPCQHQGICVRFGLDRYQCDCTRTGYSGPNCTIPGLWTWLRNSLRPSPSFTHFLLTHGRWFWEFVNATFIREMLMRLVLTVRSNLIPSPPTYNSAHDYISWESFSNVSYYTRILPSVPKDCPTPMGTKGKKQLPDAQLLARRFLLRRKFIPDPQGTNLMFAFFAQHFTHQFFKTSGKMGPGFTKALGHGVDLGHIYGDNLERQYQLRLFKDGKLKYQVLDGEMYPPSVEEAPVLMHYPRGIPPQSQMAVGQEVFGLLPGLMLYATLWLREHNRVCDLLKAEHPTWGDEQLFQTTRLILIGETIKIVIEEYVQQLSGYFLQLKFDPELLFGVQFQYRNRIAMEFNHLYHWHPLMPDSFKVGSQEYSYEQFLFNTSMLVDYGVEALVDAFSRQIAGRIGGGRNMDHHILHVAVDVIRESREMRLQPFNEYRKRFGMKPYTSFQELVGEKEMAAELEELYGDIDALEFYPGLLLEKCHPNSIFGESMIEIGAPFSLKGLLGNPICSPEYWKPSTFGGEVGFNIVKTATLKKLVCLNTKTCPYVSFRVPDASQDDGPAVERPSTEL

[5] = biological target: cGMP-inhibited 3',5'-cyclic phosphodiesterase 3A (Homo sapiens, UniProt Q14432); type: functional
Chain of cGMP-inhibited 3',5'-cyclic phosphodiesterase 3A (Q14432 whole entry): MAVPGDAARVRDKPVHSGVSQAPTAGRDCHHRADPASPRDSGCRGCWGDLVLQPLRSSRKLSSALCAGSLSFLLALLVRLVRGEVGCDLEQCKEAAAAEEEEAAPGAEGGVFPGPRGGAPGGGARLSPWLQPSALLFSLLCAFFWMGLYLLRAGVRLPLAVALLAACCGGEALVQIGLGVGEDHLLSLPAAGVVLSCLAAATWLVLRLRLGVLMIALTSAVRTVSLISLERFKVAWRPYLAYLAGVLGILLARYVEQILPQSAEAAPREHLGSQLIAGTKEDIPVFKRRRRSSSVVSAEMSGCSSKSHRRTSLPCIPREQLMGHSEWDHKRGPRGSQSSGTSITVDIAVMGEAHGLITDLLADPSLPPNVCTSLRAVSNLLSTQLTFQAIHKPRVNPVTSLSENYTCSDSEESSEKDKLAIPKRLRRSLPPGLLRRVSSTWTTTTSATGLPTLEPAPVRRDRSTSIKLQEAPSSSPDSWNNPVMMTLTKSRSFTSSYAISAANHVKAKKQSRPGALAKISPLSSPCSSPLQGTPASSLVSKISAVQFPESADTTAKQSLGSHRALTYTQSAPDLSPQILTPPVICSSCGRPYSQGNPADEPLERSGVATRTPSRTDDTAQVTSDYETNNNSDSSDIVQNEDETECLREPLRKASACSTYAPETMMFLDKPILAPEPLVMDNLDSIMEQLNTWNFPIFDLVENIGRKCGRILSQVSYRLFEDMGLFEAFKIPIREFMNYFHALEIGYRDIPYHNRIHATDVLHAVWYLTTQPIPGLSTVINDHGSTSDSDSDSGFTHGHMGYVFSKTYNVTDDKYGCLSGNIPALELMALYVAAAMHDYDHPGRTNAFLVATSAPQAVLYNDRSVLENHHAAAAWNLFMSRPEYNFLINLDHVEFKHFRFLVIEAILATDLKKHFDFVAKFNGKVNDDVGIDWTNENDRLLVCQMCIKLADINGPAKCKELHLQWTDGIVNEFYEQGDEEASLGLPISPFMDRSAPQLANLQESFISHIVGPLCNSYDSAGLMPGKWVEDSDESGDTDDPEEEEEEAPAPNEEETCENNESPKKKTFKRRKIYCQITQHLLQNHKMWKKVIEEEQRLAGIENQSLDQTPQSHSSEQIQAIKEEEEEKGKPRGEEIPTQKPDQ

Progesterone receptor [6] = biological target: T2, Progesterone receptor
Thromboxane A2 receptor = biological target: T4, Thromboxane A2 receptor (Homo sapiens, UniProt P21731); type: functional, cell-based
T4 sequence (P21731 whole entry): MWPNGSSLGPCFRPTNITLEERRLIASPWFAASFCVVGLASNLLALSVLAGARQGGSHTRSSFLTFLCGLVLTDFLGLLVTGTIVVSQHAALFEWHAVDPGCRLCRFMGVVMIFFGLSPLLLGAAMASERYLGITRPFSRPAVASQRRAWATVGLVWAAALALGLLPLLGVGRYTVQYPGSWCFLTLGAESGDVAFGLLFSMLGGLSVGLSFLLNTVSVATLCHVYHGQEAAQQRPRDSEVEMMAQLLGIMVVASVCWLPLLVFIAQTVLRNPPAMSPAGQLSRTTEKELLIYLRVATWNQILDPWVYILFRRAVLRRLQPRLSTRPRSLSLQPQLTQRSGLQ

Mu-type opioid receptor = Mu-type opioid receptor (Homo sapiens, UniProt P35372)
Chain of Mu-type opioid receptor (P35372 whole entry): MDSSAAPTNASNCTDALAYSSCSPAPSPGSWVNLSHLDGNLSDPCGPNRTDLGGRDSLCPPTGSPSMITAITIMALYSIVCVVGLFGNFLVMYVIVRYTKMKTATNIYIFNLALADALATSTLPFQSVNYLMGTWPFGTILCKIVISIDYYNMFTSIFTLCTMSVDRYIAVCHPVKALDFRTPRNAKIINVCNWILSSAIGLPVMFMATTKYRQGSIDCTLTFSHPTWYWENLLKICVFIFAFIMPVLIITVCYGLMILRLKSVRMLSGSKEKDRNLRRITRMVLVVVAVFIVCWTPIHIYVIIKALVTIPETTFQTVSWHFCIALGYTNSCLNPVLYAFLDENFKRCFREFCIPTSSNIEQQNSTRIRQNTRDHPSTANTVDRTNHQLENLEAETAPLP
Also: assay procedure not described here.

Q: For `COC(=O)N[C@H](C(=O)N1CCC[C@H]1c1nc(-c2ccc(-c3ccc(-c4c[nH]c([C@@H]5CCCN5C(=O)[C@@H](NC(=O)OC)C(C)C)n4)cc3)cc2)c[nH]1)C(C)C`, which AC50 [1] is on record?
A: > 30 µM

Q: And the AC50 (Progesterone receptor [2])?
A: > 30 µM

Q: And the AC50 [3]?
A: > 30 µM

Q: For `CC(N)Cc1ccccc1` (centres undefined) [AMPHETAMINE], which AC50 [1] is on record?
A: > 30 µM

Q: What about the AC50 (Progesterone receptor [2]) of the same molecule?
A: > 30 µM

Q: And the AC50 [3]?
A: > 30 µM

Q: For `O=C1c2c(O)c(=O)ccn2N([C@@H]2c3ccccc3SCc3c2ccc(F)c3F)[C@@H]2COCCN12` [BALOXAVIR], which AC50 [4] is on record?
A: > 30 µM

Q: What about the AC50 [5] of the same molecule?
A: > 30 µM

Q: What about the AC50 (Progesterone receptor [6]) of the same molecule?
A: > 30 µM

Q: And the AC50 (Thromboxane A2 receptor)?
A: > 30 µM

Q: `C(=N\NC1=NCCN1)/c1c2ccccc2c(/C=N/NC2=NCCN2)c2ccccc12` [BISANTRENE] was tested. Which AC50 [4] did it give?
A: > 30 µM

Q: And the AC50 [5]?
A: > 30 µM

Q: And the AC50 (Progesterone receptor [6])?
A: > 30 µM

Q: And the AC50 (Thromboxane A2 receptor)?
A: > 30 µM

Q: How did the AC50 (Mu-type opioid receptor) turn out when `CC(C)NCC(O)COc1ccc(COCCOC(C)C)cc1` (centres undefined) [BISOPROLOL] was run?
A: > 10 µM

Q: And the AC50 [3]?
A: > 10 µM

Q: `COc1cc(Nc2c(C#N)cnc3cc(OCCCN4CCN(C)CC4)c(OC)cc23)c(Cl)cc1Cl` [BOSUTINIB] was tested. Which AC50 [4] did it give?
A: > 30 µM

Q: And the AC50 [5]?
A: > 30 µM

Q: What about the AC50 (Progesterone receptor [6]) of the same molecule?
A: 7.75 µM

Q: And the AC50 (Thromboxane A2 receptor)?
A: > 10 µM

Q: How did the AC50 [1] turn out when `N[C@@H](C(=O)N[C@@H]1C(=O)N2C(C(=O)O)=C(Cl)CS[C@H]12)c1ccccc1` [CEFACLOR ANHYDROUS] was run?
A: > 30 µM

Q: And the AC50 (Progesterone receptor [2])?
A: > 30 µM

Q: What about the AC50 [3] of the same molecule?
A: > 30 µM

Q: For `CC(=O)OCC(=O)[C@@]1(O)CC[C@H]2[C@@H]3CCC4=CC(=O)CC[C@]4(C)[C@H]3C(=O)C[C@@]21C` [CORTISONE ACETATE], which AC50 [1] is on record?
A: > 30 µM

Q: How did the AC50 [4] turn out when `O=C1c2ccccc2C(=O)C1C(=O)C(c1ccccc1)c1ccccc1` [DIPHENADIONE] was run?
A: 20.4 µM

Q: And the AC50 [5]?
A: > 30 µM

Q: What about the AC50 (Progesterone receptor [6]) of the same molecule?
A: > 30 µM

Q: What about the AC50 (Thromboxane A2 receptor) of the same molecule?
A: 7.02 µM

Q: With `CCC(=O)O[C@H]1[C@H](O[C@@H]2[C@@H](C)[C@H](O[C@H]3C[C@@](C)(OC)[C@@H](O)[C@H](C)O3)[C@@H](C)C(=O)O[C@H](CC)[C@@](C)(O)[C@H](O)[C@@H](C)C(=O)[C@H](C)C[C@@]2(C)O)O[C@H](C)C[C@@H]1N(C)C` [ERYTHROMYCIN PROPIONATE] as the molecule, how does the AC50 [4] read?
A: > 10 µM

Q: And the AC50 [5]?
A: > 30 µM

Q: And the AC50 (Progesterone receptor [6])?
A: 10.4 µM

Q: And the AC50 (Thromboxane A2 receptor)?
A: > 30 µM

Q: `COc1ccc2c(c1)C(=O)N(CCc1ccc(S(=O)(=O)NC(=O)NC3CCCCC3)cc1)C(=O)C2(C)C` [GLIQUIDONE] was tested. Which AC50 [1] did it give?
A: > 30 µM

Q: What about the AC50 (Progesterone receptor [2]) of the same molecule?
A: > 30 µM

Q: What about the AC50 [3] of the same molecule?
A: > 30 µM

Q: What does the source list for `CN1CCCC(CN2c3ccccc3Sc3ccccc32)C1` (centres undefined) [MEPAZINE]?
A: AC50 [4]: > 30 µM; AC50 [5]: > 30 µM; AC50 (Progesterone receptor [6]): > 30 µM; AC50 (Thromboxane A2 receptor): > 30 µM

Q: `Cc1cccc(C)c1OCC(C)N` (centres undefined) [MEXILETINE] was tested. Which AC50 [1] did it give?
A: > 30 µM

Q: What about the AC50 (Progesterone receptor [2]) of the same molecule?
A: > 30 µM

Q: What about the AC50 [3] of the same molecule?
A: > 30 µM

Q: `NC(=O)c1ncn([C@@H]2O[C@H](CO)[C@@H](O)[C@H]2O)c1O` [MIZORIBINE] was tested. Which AC50 [1] did it give?
A: > 30 µM

Q: And the AC50 (Progesterone receptor [2])?
A: > 30 µM

Q: With `CCc1nn(CCCN2CCN(c3cccc(Cl)c3)CC2)c(=O)n1CCOc1ccccc1` [NEFAZODONE] as the molecule, how does the AC50 (Mu-type opioid receptor) read?
A: 3.8 µM

Q: Which results are given for `OCCN1CCN(CCCN2c3ccccc3C=Cc3ccccc32)CC1` [OPIPRAMOL]?
A: AC50 [1]: 14 µM; AC50 [4]: > 30 µM; AC50 [5]: > 30 µM; AC50 (Progesterone receptor [6]): > 30 µM; AC50 (Progesterone receptor [2]): > 30 µM; AC50 (Thromboxane A2 receptor): > 30 µM; AC50 [3]: > 30 µM

Q: `Cc1cc2c(cc1CC(=O)c1sccc1S(=O)(=O)Nc1onc(C)c1Cl)OCO2` [SITAXENTAN] was tested. Which AC50 [4] did it give?
A: > 30 µM

Q: And the AC50 [5]?
A: > 30 µM

Q: What about the AC50 (Progesterone receptor [6]) of the same molecule?
A: > 30 µM

Q: And the AC50 (Thromboxane A2 receptor)?
A: > 30 µM

Q: What does the source list for `CS(=O)(=O)c1ccc([C@@H](O)[C@@H](CO)NC(=O)C(Cl)Cl)cc1` [THIAMPHENICOL]?
A: AC50 [1]: > 30 µM; AC50 [4]: > 30 µM; AC50 [5]: > 30 µM; AC50 (Progesterone receptor [6]): > 30 µM; AC50 (Progesterone receptor [2]): > 30 µM; AC50 (Thromboxane A2 receptor): > 30 µM; AC50 [3]: > 30 µM

Q: For `Cc1ccc(O)c2ncccc12` [TILIQUINOL], which AC50 [4] is on record?
A: > 30 µM

Q: And the AC50 [5]?
A: > 30 µM

Q: And the AC50 (Progesterone receptor [6])?
A: > 30 µM

Q: What about the AC50 (Thromboxane A2 receptor) of the same molecule?
A: > 30 µM

Q: Which results are given for `CC(=O)OC[C@H]1O[C@@H](n2ccc(=O)[nH]c2=O)[C@H](OC(C)=O)[C@@H]1OC(C)=O` [URIDINE TRIACETATE]?
A: AC50 [4]: > 30 µM; AC50 [5]: > 30 µM; AC50 (Progesterone receptor [6]): > 30 µM; AC50 (Thromboxane A2 receptor): > 30 µM

Q: How did the AC50 [1] turn out when `CCCS(=O)(=O)Nc1ccc(F)c(C(=O)c2c[nH]c3ncc(-c4ccc(Cl)cc4)cc23)c1F` [VEMURAFENIB] was run?
A: > 30 µM

Q: And the AC50 (Progesterone receptor [2])?
A: 23 µM

Q: And the AC50 [3]?
A: > 30 µM
